Data taken from patent publication US11382985B2, “Anti-tumour immune responses to modified self-epitopes” (Scancell Limited, priority 2015, dated 2022).
Square brackets hold non-standard residues; d marks the D form. Ends that are not written are not given here. Cit = NC(=O)NCCC[C@H](N)C(=O)O

System: splenocytes
Test: Peptide immunisation and ex vivo Elispot, DP4 mice
Type: in vivo, HHD/HLA-DP4 transgenic mouse
Procedure: C57BL/6 mice (Charles River, UK), HLA-DR4 mice (Taconic, USA), HHDII/DR1 mice (Pasteur institute, France) and the HHD/HLA-DP4 transgenic strain of mouse as described in patent WO2013/017545 A1 (EMMA repository, France) were used, aged between 8 and 12 weeks, and cared for by the staff at Nottingham Trent University. All work was carried out under a Home Office project licence. Peptides were dissolved in PBS to 1 mg/ml and then emulsified (a series of dilutions) with different adjuvants: CpG and MPLA 6 μg/mouse of each (Invivogen, UK), Incomplete Freund's 50 μl/mouse (Sigma, UK), poly I:C 10 μg/mouse (Invivogen, UK), Imiquimod 25 μg/mouse (Invivogen, UK) and GMCSF 10 μg/mouse (Peprotech, UK). Peptides (25 μg/mouse) were injected subcutaneously at the base of the tail. DNA (1 μg/mouse) was coated onto 1.0 μm gold particles (BioRad, Hemel Hempstead, UK) using the manufacturer's instructions and administered intradermally by genegun (BioRad). Homspera (10 nM/mouse) (PeptideSynthetics, UK) was injected intradermally with genegun immunisation. Mice were immunized at either day 0 for peptide immunisation or days, 0 and 7 for genegun immunisation, unless otherwise stated. Spleens were removed for analysis at day 14 for peptide and day 20 for peptide or genegun immunisation unless stated otherwise.
Elispot assays were performed using murine IFNγ, IL-17 and IL-10 capture and detection reagents according to the manufacturer's instructions (Mabtech, Sweden). In brief, anti-IFNγ, IL-17 and IL-10 antibodies were coated onto wells of 96-well Immobilin-P plate. Synthetic peptides (at a variety of concentrations) and 5×10^5 per well splenocytes were added to the wells of the plate in triplicate. Tumour target cells were added where relevant at 5×10^4/well in triplicate and plates incubated for 40 hrs at 37° C. After incubation, captured IFN and IL-10 were detected by biotinylated anti-IFNγ and IL-10 antibodies and developed with a streptavidin alkaline phosphatase and chromogenic substrate. Spots were analysed and counted using an automated plate reader (Cellular Technologies Ltd).

[1] = DP4 mice immunised with human 241-260cit

VIGMDVAASEFF-CIT-SGKYDLD (VIGMDVAASEFF[Cit]SGKYDLD; listed as Homo sapiens) [Enolase 241cit]
IFNγ response in presence of CD4 blocking antibody [1]: blocked
IFNγ response in presence of CD8 blocking antibody [1]: not
IFNγ response to shorter peptide spanning aa241-255 [1]: show cross reactivity
IL-10 in response to the cit peptide [1]: no IL-10
IFNγ response compared to the wild type peptides (DP4 mice, three doses of human Enolase 241cit, label = restimulating peptide): increased IFNγ responses
IFNγ response in combination with imiquimod (DP4 transgenic mice): induces IFNγ responses
IFNγ response in combination with poly I:C (DP4 transgenic mice): induces IFNγ responses
IL-10 response in combination with poly I:C (DP4 transgenic mice): no IL-10
